Measurements as given in patent EP0603240B1, “SAFENING HERBICIDAL PYRAZOLYLSULFONYLUREAS” (priority 1991, dated 1993).

Assays:
corn [1] = experiment: Example 11, Procedure II: Herbicide No. 1 + metazachlor (No. 14) with antidotes; type: in vivo
Procedure: (§1) Containers were filled and compacted with a fumigated silt loam top soil to a depth of about 1.3 cm from the top of the container. A first container was designated as an untreated control, a second container was designated as a herbicide control, and a third container was designated as a herbicide + antidote test container. Each of the containers was seeded with a crop species. A measured amount of herbicide dispersed or dissolved in acetone was applied to a measured quantity of soil. To this same quantity of soil treated with herbicide, there was added a measured amount of antidote dispersed or dissolved in acetone. The quantity of soil treated with the herbicide and antidote was thoroughly mixed to incorporate the herbicide and antidote in the soil uniformly. The seed bed in the third container of soil was covered with the soil treated with the herbicide and antidote and the container was leveled. For each test series, the seed beds of the first and second containers were likewise covered by soil layers. the cover layer of the first container was not treated with herbicide or antidote.
(§2) The containers were then placed on a bench in a greenhouse and sub-irrigated as required for the duration of the test. […] Plant response is measured in terms of percent injury. Antidote efficacy is indicated as the difference in plant injury by the herbicide(s) without the antidote and with the antidote.
(§3) This procedure is the same as Procedure I, but modified in the manner that after incorporation of the chemicals (herbicide and antidote) the containers with the covered seedbed were treated with an initial overhead irrigation equivalent to 0.6 cm rainfall, then subsequently sub-irrigated as required on greenhouse benches.
In this example, yet another α-chloroacetanilide co-herbicide, metazachlor (Herbicide No. 14) was combined with Herbicide No. 1 for investigation of the effect of various safeners on that composition. Metazachlor is the active ingredient in the commercial herbicide BUTISAN® S, used here as a 500 g/L formulation.

corn [2] = experiment: Example 2, Procedure II: dichloroacetamide antidotes against Herbicide No. 1; type: in vivo
Procedure: as §1, §2, §3
In this example, a plurality of dichloroacetamide antidotes were tested for their safening efficacy against Herbicide No. 1 in corn, using Procedure II. In this test the weed was velvetleaf; barnyardgrass was not present in this test.

corn [3] = experiment: Example 23, Procedure II: Antidote Nos. 15 and 17-21 against Herbicide No. 1, 13 days after application; type: in vivo; details: for % Inhibition Corn: 13 days after application
Procedure: as §1, §2, §3
(§4) In other greenhouse tests, using Procedure II described above, the safening efficacy of Antidote Nos. 15 and 17-21 was evaluated against Herbicide No. 1 in corn in the presence of Giant foxtail (Setaria fabergi) and Velvetleaf (Abutilon theophrasti) as representative annual monocotyledonous and dicotyledonous weeds, respectively.
(§5) Test results are shown in Tables 23A and 23B wherein the indicated plant inhibition represents the average of duplicate replications, with observations being made thirteen (13) days after application of the chemicals. Giant foxtail and Velvetleaf are represented by the symbols "GFT" and "VL", respectively. The data in Table 23A show the test results using the antidotes at 2.24 kg/ha, whereas in Table 23B, the antidotal rate was reduced to 0.56 kg/ha.

corn [4] = experiment: Example 4, Procedure I: Antidote Nos. 15 and 16 against Herbicide No. 1; type: in vivo
Procedure: as §1, §2
This example describes tests with Antidote Nos. 15 and 16 to safen Herbicide No. 1 according to Procedure I using corn and the weeds barnyardgrass and velvetleaf as the test plants.

corn [5] = experiment: Example 8, Procedure II: Herbicide No. 1 + butachlor (No. 9) with antidotes; type: in vivo
Procedure: as §1, §2, §3
(§6) In this test, the efficacy of the same five antidotes used in Examples 6 and 7 was investigated in compositions comprising Herbicide No. 1 and as a co-herbicide, butachlor (Herbicide No. 9), active ingredient in MACHETE® herbicide, a leading commercial rice herbicide. The test procedure used in this example was the same as that in Examples 6 and 7.

corn [6] = experiment: Example 25, greenhouse preemergence test: Antidote Nos. 1 and 2 against Herbicide Nos. 1-3; type: in vivo, Corn (Pioneer 3424 variety); details: Preemergence
Outline: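 Greenhouse preemergence application; herbicides as wettable powders, dichlormid as emulsifiable concentrate, naphthalic anhydride as conventional seed coating on corn before planting. Rates in g active ingredient/ha; naphthalic anhydride amount not quantified. Corn injury scored as percent growth inhibition.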

[7] = system: velvetleaf (Abutilon theophrasti); experiment: Example 8, Procedure II: Herbicide No. 1 + butachlor (No. 9) with antidotes; type: in vivo
Procedure: as §1, §2, §3
(§7) In the series of greenhouse tests described below, for routine screening purposes the herbicide/antidote compositions were tested in crop/weed combinations involving corn as the crop and either or both of the weeds barnyardgrass (Echinochloa crusgalli), a monocotyledonous weed, and velvetleaf (Abutilon theophrasti), a dicotyledonous weed. In the tables below, these weeds are indicated by the symbols "BYG" and "VL", respectively.
as §6

[8] = system: barnyardgrass (Echinochloa crusgalli); experiment: as above; type: in vivo
Procedure: as §1, §2, §3, §7, §6

[9] = system: velvetleaf (Abutilon theophrasti); experiment: Example 23, Procedure II: Antidote Nos. 15 and 17-21 against Herbicide No. 1, 13 days after application; type: in vivo
Procedure: as §1, §2, §3, §4, §5

[10] = system: Giant foxtail (Setaria fabergi); experiment: as above; type: in vivo
Procedure: as §1, §2, §3, §4, §5

[11] = Herbicide No.1 0.56 kg/ha + Herbicide No.14 3.36 kg/ha, antidote rate 2.24 kg/ha
[12] = Herbicide No.1 0.56 kg/ha + Herbicide No.14 3.36 kg/ha, antidote rate 8.96 kg/ha
[13] = Herbicide No.1 1.12 kg/ha + Herbicide No.14 3.36 kg/ha, antidote rate 2.24 kg/ha
[14] = Herbicide No.1 1.12 kg/ha + Herbicide No.14 3.36 kg/ha, antidote rate 8.96 kg/ha
[15] = Herbicide No.1 0.14 + No.9 2.24 kg/ha + antidote 2.24 kg/ha
[16] = Herbicide No.1 0.14 + No.9 2.24 kg/ha + antidote 8.96 kg/ha
[17] = Herbicide No.1 0.56 + No.9 2.24 kg/ha + antidote 2.24 kg/ha
[18] = Herbicide No.1 0.56 + No.9 2.24 kg/ha + antidote 8.96 kg/ha
[19] = Table 23A, Herb. No. 1 0.14 Kg/Ha + antidote 2.24 Kg/ha
[20] = Table 23A, Herb. No. 1 0.28 Kg/Ha + antidote 2.24 Kg/ha
[21] = Table 23A, Herb. No. 1 0.56 Kg/Ha + antidote 2.24 Kg/ha
[22] = Table 23A, Herb. No. 1 1.12 Kg/Ha + antidote 2.24 Kg/ha
[23] = Table 23B, Herb. No. 1 0.14 Kg/Ha + antidote 0.56 Kg/ha
[24] = Table 23B, Herb. No. 1 0.28 Kg/Ha + antidote 0.56 Kg/ha
[25] = Table 23B, Herb. No. 1 0.56 Kg/Ha + antidote 0.56 Kg/ha
[26] = Table 23B, Herb. No. 1 1.12 Kg/Ha + antidote 0.56 Kg/ha

CC1(C)OC(c2ccco2)CN1C(=O)C(Cl)Cl (centres unmarked) [Antidote No. 15, Oxazolidine, 3-(dichloroacetyl)-5-(2-furanyl)-2,2-dimethyl]
safening of corn, assessment in words (corn [1]; Herbicides 1 and 14, Table 11): outperformed the antidotes (2 and 13) of other chemistries
safening of corn, assessment in words (corn [2]; Herbicide No. 1, Table 2): most safening and commercial-level protection for corn, at all ratios tested
safening of corn, assessment in words (corn [3]; Herbicide No. 1, Tables 23A and 23B): greatly safened corn against the herbicide at all test rates
% Injury Corn (corn [4]; Herb. No. 1 4.48 kg/ha + antidote 0.56 kg/ha): 10%
% Injury Corn (corn [4]; Herb. No. 1 4.48 kg/ha + antidote 2.24 kg/ha): 13%
safening of corn, assessment in words (corn [4]; Herbicide No. 1, Table 4): substantial safening of Herbicide No. 1
safening of corn, assessment in words (corn [5]; Herbicide Nos. 1 and 9, Table 8): best safening effect across all four treatments

C=CCN(CC=C)C(=O)C(Cl)Cl [compound 1]
% Inhibition Corn (corn [6]; Herbicide No. 1 0.25 G/ha + antidote 7.41 G/ha): 23.2%
% Inhibition Corn (corn [6]; Herbicide No. 1 0.74 G/ha + antidote 7.41 G/ha): 28.4%
% Inhibition Corn (corn [6]; Herbicide No. 1 2.5 G/ha + antidote 7.41 G/ha): 26.2%
% Inhibition Corn (corn [6]; Herbicide No. 2 0.25 G/ha + antidote 7.41 G/ha): 26.5%
% Inhibition Corn (corn [6]; Herbicide No. 2 0.74 G/ha + antidote 7.41 G/ha): 28.9%
% Inhibition Corn (corn [6]; Herbicide No. 2 2.5 G/ha + antidote 7.41 G/ha): 37.3%
% Inhibition Corn (corn [6]; Herbicide No. 3 0.07 G/ha + antidote 7.41 G/ha): 9.3%
% Inhibition Corn (corn [6]; Herbicide No. 3 0.25 G/ha + antidote 7.41 G/ha): 43.0%
% Inhibition Corn (corn [6]; Herbicide No. 3 0.74 G/ha + antidote 7.41 G/ha): 83.9%
inhibition at 7.41 g/ha (corn [6]; Zea mays, pre-emergence, antidote alone 7.41 G/ha, no herbicide, read-out: % Inhibition Corn): 21%
% Injury Corn (corn [1]; [11]): 25%
% Injury Corn (corn [1]; [12]): 50%
% Injury Corn (corn [1]; [13]): 45%
% Injury Corn (corn [1]; [14]): 50%
% Injury VL [7, 15]: 70%
% Injury VL [7, 16]: 70%
% Injury VL [7, 17]: 85%
% Injury VL [7, 18]: 80%
% Injury BYG [8, 15]: 99%
% Injury BYG [8, 16]: 99%
% Injury BYG [8, 17]: 98%
% Injury BYG [8, 18]: 99%
% Injury Corn (corn [5]; [15]): 20%
% Injury Corn (corn [5]; [16]): 10%
% Injury Corn (corn [5]; [17]): 20%
% Injury Corn (corn [5]; [18]): 15%

CC1(C(Cl)Cl)OCCO1 [compound 13]
% Injury Corn (corn [1]; [11]): 75%
% Injury Corn (corn [1]; [12]): 40%
% Injury Corn (corn [1]; [13]): 60%
% Injury Corn (corn [1]; [14]): 70%
% Injury VL [7, 15]: 75%
% Injury VL [7, 16]: 80%
% Injury VL [7, 17]: 85%
% Injury VL [7, 18]: 85%
% Injury BYG [8, 15]: 99%
% Injury BYG [8, 16]: 99%
% Injury BYG [8, 17]: 99%
% Injury BYG [8, 18]: 100%
% Injury Corn (corn [5]; [15]): 25%
% Injury Corn (corn [5]; [16]): 10%
% Injury Corn (corn [5]; [17]): 45%
% Injury Corn (corn [5]; [18]): 30%

CC1(C)OC(c2ccco2)CN1C(=O)C(Cl)Cl (centres unmarked) [compound 15]
% Injury Corn (corn [1]; [11]): 65%
% Injury Corn (corn [1]; [12]): 65%
% Injury Corn (corn [1]; [13]): 25%
% Injury Corn (corn [1]; [14]): 40%
% Injury VL [7, 15]: 85%
% Injury VL [7, 16]: 70%
% Injury VL [7, 17]: 80%
% Injury VL [7, 18]: 75%
% Injury BYG [8, 15]: 99%
% Injury BYG [8, 16]: 98%
% Injury BYG [8, 17]: 95%
% Injury BYG [8, 18]: 97%
% Injury Corn (corn [2]; Herb. No. 1 0.14 kg/ha + antidote 0.56 kg/ha): 5%
% Inhibition Corn (corn [3]; [19]): 5%
% Inhibition Corn (corn [3]; [20]): 0%
% Inhibition Corn (corn [3]; [21]): 5%
% Inhibition Corn (corn [3]; [22]): 20%
% Inhibition Corn (corn [3]; [23]): 0%
% Inhibition Corn (corn [3]; [24]): 0%
% Inhibition Corn (corn [3]; [25]): 5%
% Inhibition Corn (corn [3]; [26]): 10%
% Inhibition VL [9, 19]: 90%
% Inhibition VL [9, 20]: 90%
% Inhibition VL [9, 21]: 90%
% Inhibition VL [9, 22]: 98%
% Inhibition VL [9, 23]: 85%
% Inhibition VL [9, 24]: 90%
% Inhibition VL [9, 25]: 95%
% Inhibition VL [9, 26]: 95%
% Inhibition GFT [10, 19]: 20%
% Inhibition GFT [10, 20]: 30%
% Inhibition GFT [10, 21]: 65%
% Inhibition GFT [10, 22]: 75%
% Inhibition GFT [10, 23]: 20%
% Inhibition GFT [10, 24]: 30%
% Inhibition GFT [10, 25]: 60%
% Inhibition GFT [10, 26]: 70%
% Injury Corn (corn [4]; Herb. No. 1 6.72 kg/ha + antidote 0.56 kg/ha): 35%
% Injury Corn (corn [4]; Herb. No. 1 6.72 kg/ha + antidote 2.24 kg/ha): 50%
% Injury Corn (corn [5]; [15]): 20%
% Injury Corn (corn [5]; [16]): 15%
% Injury Corn (corn [5]; [17]): 10%
% Injury Corn (corn [5]; [18]): 10%
